Values quoted from earlier work, collected in paper PMC9409351, “Differential Ganglioside and Cholesterol Depletion by Various Cyclodextrin Derivatives and Their Effect on Synaptosomal Glutamate Release” (International Journal of Molecular Sciences, 2022).

Experiments:
[1] = system: cell model of GM1 gangliosidosis; design: method as in doi:10.1007/s10847-018-0835-8; conditions: immunofluorescence staining; cited from earlier work
cerebellar granule cells = system: cerebellar granule cells; design: method as in PMID 12897192; conditions: in addition to cholesterol extraction; cited from earlier work

| Compound | Lysosomal accumulation of GM1 [1] | Sphingomyelin and GSL levels after treatment (cerebellar granule cells) |
| --- | --- | --- |
| COCC1OC2OC3C(COC)OC(OC4C(COC)OC(OC5C(COC)OC(OC6C(COC)OC(OC7C(COC)OC(OC1C(O)C2OC)C(OC)C7O)C(OC)C6O)C(OC)C5O)C(OC)C4O)C(OC)C3O (stereo not drawn) [DIMEA, hexakis(2,6-di-O-methyl)-alpha-cyclodextrin] | reduced lysosomal accumulation of GM1 | – |
| methylated beta-cyclodextrins [MBCD] | – | reduction in the sphingomyelin and GSL levels |
